Like-named read-outs stand apart in the source and are kept apart here.

The test system of the experiment is PGE2 formation in normal human epidermal keratinocytes (NHEK). Description: Inhibition of PGE2 formation in irritated keratinocyte cultures (PGE2 immunoassay). It counts as cell-based. The conditions noted are these: 24 h; for inhibition at 50 µM: Homo sapiens, NHEK, read-out: relative inhibition in % of PGE2 formation in keratinocyte cultures at 50 μM; for relative inhibition in % of PGE2 formation in keratinocyte cultures at μM: column head prints only 'μM' (method: 50 μM or 10 μM), calcimycin 2.5 μM. As to the method: A confluent culture was trypsinated and adjusted to a density of 5×10^4 cells/ml. The cells were then seeded in the same medium but with only 1% fetal calf serum in 24 well plates and cultivated for a period of 48 h. A model irritating agent was then applied to the cells by adding calcimycin to a final level of 2.5 μM. The individual compounds, as listed below, dissolved in DMSO were added simultaneously. The final concentration of the compounds was 50 μM or 10 μM, the final DMSO concentration was adjusted to 1% (v/v). Parallel treatments received no calcimycin (non-irritated control) or calcimycin without compounds according to the present invention (irritated control). The DMSO concentration was adjusted to 1% in all these control treatments. […] The prostaglandin levels in treated cell cultures were compared to the irritated and non-irritated control cultures in order to determine the relative inhibition of PGE2 formation.

The mark [1] stands for this setting: 50 μM compound, irritated with calcimycin 2.5 μM, 1% DMSO.

Consider `CC(=O)OCC=Cc1ccccc1` [Cinnamyl acetate], for which the inhibition at 50 µM under setting [1] was 47.8%. On the same count and under the same terms, the value for `CCC(C)C(=O)OCCc1ccccc1` (stereo not drawn) [ANATOLYL ™, phenethyl 2-methylbutanoate] was 50.5%. Take `CC/C=C\CCOC(=O)c1ccccc1O` [cis-3-Hexen-1-yl salicylate]: under setting [1], the inhibition at 50 µM stood at 94.8%. In addition, the “relative inhibition in % of PGE2 formation in keratinocyte cultures at μM” value (“relative inhibition in %” for short) (1% DMSO) was determined as 81.4%. In the case of `CC(C)C(=O)OCCc1ccccc1` [Phenethyl isobutyrate], under setting [1], the inhibition at 50 µM was found to be 44.8%.

Take `O=C(C=Cc1ccccc1)OCC=Cc1ccccc1` [Cinnamyl cinnamate]: the inhibition at 50 µM under setting [1] stood at 64%. The same measure, in the same setting: for `CC(C)(C)C(=O)OCCc1ccccc1` [CENTIFOLYL ™, phenethyl pivalate] the value was 39%. As for `CC(C)COC(=O)c1ccccc1O` [Isobutyl salicylate, isobutyl 2-hydroxybenzoate], the inhibition at 50 µM under setting [1] is 69.1%. For the setting “1% DMSO”, the “relative inhibition in %” value is listed as 73.1%.

Take `CCOc1ccc2ccccc2c1` [NEROLINE ™ CRIST, 2-ethoxynaphthalene]: the inhibition at 50 µM under setting [1] is 83%. Further, the “relative inhibition in %” value (1% DMSO) is reported as 50.2%. For `COc1ccc(CC2CC2)cc1` [TOSCANOL ®, 1-(cyclopropylmethyl)-4-methoxybenzene], the inhibition at 50 µM under setting [1] was 56.7%. As for `O=C(OC1CCCCC1)c1ccccc1O` [Cyclohexyl salicylate, cyclohexyl 2-hydroxybenzoate], the inhibition at 50 µM under setting [1] is 97.4%. In addition, the “relative inhibition in %” value (1% DMSO) was determined as 76.6%. The like results for `CCC(CC)=C(C#N)c1ccccc1` [3-Ethyl-2-phenylpent-2-enenitrile] were, in that order, 73.2% and 63.9%. In the case of `O=C(OCCc1ccccc1)c1ccccc1O` [Phenethyl salicylate], the inhibition at 50 µM under setting [1] was 50.9%. As to `O=C(OCCc1ccccc1)c1ccccc1` [Phenethyl benzoate], the inhibition at 50 µM under setting [1] came to 92.4%. Besides, the “relative inhibition in %” value (1% DMSO) is 56.9%. The like results for `N#CC(=C1CCCCC1)c1ccccc1` [PEONILE ®, 2-cyclohexylidene-2-phenylacetonitrile] were, in that order, 93.3% and 92.4%. For `CC(C)Cc1ccc(CC(C)C=O)cc1` (stereo not drawn) [SILVIAL ®, 2-Methyl-3-(4-(2-methylpropyl)phenyl)propanal], the inhibition at 50 µM under setting [1] is 62.7%. Take `CC=C(C)C(=O)OCc1ccccc1` [TIGLATE BENZYLE, benzyl 2-methylbut-2-enoate]: under setting [1], the inhibition at 50 µM was 72.4%. For the same compound, the “relative inhibition in %” value (1% DMSO) was 50.2%.

As for `CCCCCCOC(=O)c1ccccc1O` [n-Hexyl salicylate], under setting [1], the inhibition at 50 µM was found to be 82.9%. For the setting “1% DMSO”, the “relative inhibition in %” value is listed as 91.6%.

With `CCOc1cc(COC(C)C)ccc1O` [PROPYL DIANTILIS, 2-Ethoxy-4-(isopropoxymethyl)phenol], the inhibition at 50 µM came to 90.9%. The “relative inhibition in %” value (1% DMSO) was 95.1%. Consider `CC(C)(C)c1ccc(CCC=O)cc1` [BOURGEONAL ™, 3-(4-tert-butylphenyl)propanal], for which, under setting [1], the inhibition at 50 µM was 65%. For the compound `N#CC(=C1CCCC1)c1ccccc1` [2-Cyclopentylidene-2-phenylacetonitrile], under setting [1], the inhibition at 50 µM was 80.8%. The “relative inhibition in %” value (1% DMSO) is reported as 71.1%.

Turning to `CC=Cc1ccc(OC)cc1` [ANETHOLE, 1-methoxy-4-(prop-1-enyl)benzene], the inhibition at 50 µM under setting [1] stood at 51%. With `CCCCCCCC1CCCC1=O` (stereo not drawn) [ALISMONE ™, 2-heptylcyclopentanone], the inhibition at 50 µM under setting [1] worked out at 92.4%. For the same compound, the “relative inhibition in %” value (1% DMSO) turned out to be 47%. The like results for `CC(C=O)Cc1ccc(C(C)C)cc1` (stereo not drawn) [CYCLAMEN ALDEHYDE ™, 2-Methyl-3-(4-isopropylphenyl)propanal] were, in that order, 82% and 32%.

For `CCCCCOC(=O)c1ccccc1O` [Amyl salicylate, pentyl 2-hydroxybenzoate], the inhibition at 50 µM under setting [1] came out at 89.8%. Further, the “relative inhibition in %” value (1% DMSO) stood at 73.5%. The like results for `O=C(C=Cc1ccccc1)OCCc1ccccc1` [Phenethyl cinnamate] were, in that order, 91.7% and 93.6%. `CC(C)COC(=O)c1ccccc1` [Isobutyl benzoate]: the inhibition at 50 µM under setting [1] was found to be 52.5%.

Turning to `CCOc1cc(COC)ccc1O` [METHYL DIANTILIS ®, 2-Ethoxy-4-(methoxymethyl)phenol], the “relative inhibition in %” value (1% DMSO) amounted to 88.2%.

Source of the values: patent US9440097B2, “Organic compounds” (Givaudan SA, priority 2005, dated 2016).
